In the experiment the test system is Plasmodium berghei. The experiment is described as follows: Luciferase/luciferin-expressing antifolate-resistant parasites were used to infect a culture of HepG2 cells that were pre-incubated with compounds. Infected hepatocytes emit light due to the luciferase reaction. Assay results are presented as the percent inhibition of light emission compared to control. […]. The class given is functional. As to conditions: sporozoite; for IC90: read-out: LUCIFERASE INFECTION ASSAY - IC90.

Where [1] appears, read: read-out: LUCIFERASE INFECTION ASSAY - IC50.

A word on the IC50: it is the concentration that inhibits the measured activity by half. As usually defined, the IC90 is the point of the concentration-response curve where the effect stands at 90%. With `Cc1cc(C)n(-c2nc(-c3ccccc3)cc(N(C)CCO)n2)n1`, the IC90 worked out at 3.45 µM. Further, for the setting “HEPG2TOX_HILL_SLOPE 0.522, HEPG2TOX_R_SQUARED 0.395, PBLUC_HILL_SLOPE 14.2, PBLUC_R_SQUARED 0.716, read-out: LUCIFERASE INFECTION ASSAY - IC50”, the IC50 turned out to be 2.96 µM.

For the compound `CCOC(=O)c1cnn(-c2ccc(C(=O)N(Cc3ccc(F)cc3)C3CC3)cc2)c1C`, the IC90 was more than 10 µM. For the same compound, the IC50 under setting [1] was more than 10 µM.

As for `CCC(=O)N1CCCC(C(=O)NCc2ccc(C(C)C)cc2)CC1` (stereo not given), the IC90 was more than 9.99 µM. Also, under setting [1], the IC50 was more than 9.99 µM.

Take `Cc1c(Cl)cccc1N=C(SCC(=O)N1CCCCCC1)C(C#N)c1nc2ccccc2s1` (stereo not given): the IC90 is more than 10 µM. Further, the IC50 (HEPG2TOX_HILL_SLOPE 5.36, HEPG2TOX_R_SQUARED 0.816, PBLUC_HILL_SLOPE 12.3, PBLUC_R_SQUARED 0.271, read-out: LUCIFERASE INFECTION ASSAY - IC50) is 8.92 µM.

`CCOC(=O)c1c[nH]c2ccc(OC(F)(F)F)cc2c1=O`: the IC90 was more than 11 µM. In addition, under setting [1], the IC50 was more than 11 µM.

With `Cc1c(C(=O)Nc2nonc2-c2ccc(F)cc2)oc2ccc(F)cc12`, the IC90 amounted to 8.3 µM. In addition, under “HEPG2TOX_HILL_SLOPE 16.1, HEPG2TOX_R_SQUARED 0.611, PBLUC_HILL_SLOPE 12, PBLUC_R_SQUARED 0.0677, read-out: LUCIFERASE INFECTION ASSAY - IC50”, the IC50 came out at 6.91 µM.

Turning to `CS(=O)(=O)c1ccc(-c2cnc(N)c(-c3cccc(O)c3)c2)cc1`, the IC90 was found to be 3.71 µM. Moreover, the IC50 (PBLUC_HILL_SLOPE 17.6, PBLUC_R_SQUARED 0.332, read-out: LUCIFERASE INFECTION ASSAY - IC50) is 3.27 µM.

Consider `CCOC(=O)c1cnc2c([N+](=O)[O-])cccc2c1O`, for which the IC90 was found to be 4 µM. In addition, the IC50 (PBLUC_HILL_SLOPE 2.74, PBLUC_R_SQUARED 0.626, read-out: LUCIFERASE INFECTION ASSAY - IC50) is 1.79 µM.

`CCC1Oc2ccccc2C(=O)N(Cc2ccccc2F)C1=O` (stereo not given): the IC90 is more than 10.5 µM. In addition, the IC50 under setting [1] is more than 10.5 µM.

As for `CC(c1ccc(-n2cncn2)cc1)N(C)S(=O)(=O)N1CCc2ccccc2C1` (stereo not given), the IC90 was more than 10 µM. Also, the half-inhibitory concentration (IC50) (PBLUC_HILL_SLOPE 2.44, PBLUC_R_SQUARED 0.756, read-out: LUCIFERASE INFECTION ASSAY - IC50) was determined as 6.27 µM.

With `CCCc1ccc(C(=O)C(C)Sc2nnc(Cc3cccc4ccccc34)n2N)cc1` (stereo not given), the concentration for an effect of 90% (IC90) is more than 10 µM. Also, where the note is “FFLUC_HILL_SLOPE 1.29, FFLUC_R_SQUARED 0.471, read-out: LUCIFERASE INFECTION ASSAY - IC50”, the half-inhibitory concentration (IC50) was more than 10 µM.

`COc1cc(C)c(Nc2cc(-c3ccc(N(C)C)cc3)ncn2)cc1OC`: the IC90 amounted to 0.48 µM. For the same compound, the IC50 (HEPG2TOX_HILL_SLOPE 1.1, HEPG2TOX_R_SQUARED 0.88, PBLUC_HILL_SLOPE 3.68, PBLUC_R_SQUARED 0.773, read-out: LUCIFERASE INFECTION ASSAY - IC50) came to 0.264 µM.

Regarding `COc1ccc(-c2csc(N/C=C3/C(=O)NC(=O)c4ccccc43)n2)cc1OC`, the IC90 came to 8.15 µM. The IC50 (HEPG2TOX_HILL_SLOPE 3.11, HEPG2TOX_R_SQUARED 0.952, PBLUC_HILL_SLOPE 3, PBLUC_R_SQUARED 0.801, read-out: LUCIFERASE INFECTION ASSAY - IC50) worked out at 3.92 µM.

In the case of `Cn1c(-c2ccccc2)c(C(=O)CSc2nnc(-c3cccs3)[nH]2)c2ccccc21`, the 90% effect concentration (IC90) is 7.84 µM. The IC50 (HEPG2TOX_HILL_SLOPE 1.76, HEPG2TOX_R_SQUARED 0.96, PBLUC_HILL_SLOPE 1.67, PBLUC_R_SQUARED 0.727, read-out: LUCIFERASE INFECTION ASSAY - IC50) was 2.1 µM.

Regarding `CCC(CNC(=O)NCC(=O)Nc1cc(Cl)ccc1Cl)c1ccccc1` (stereo not given), the 90% effect concentration (IC90) is more than 10 µM. Moreover, the IC50 (FFLUC_HILL_SLOPE 6.98, FFLUC_R_SQUARED 0.07, read-out: LUCIFERASE INFECTION ASSAY - IC50) was more than 10 µM.

Regarding `O=C(/C=C/c1csc(-c2ccc(Cl)cc2)n1)c1cccc(O)c1`, the 90% effect concentration (IC90) is 4.93 µM. Besides, the IC50 (PBLUC_HILL_SLOPE 11.6, PBLUC_R_SQUARED 0.644, read-out: LUCIFERASE INFECTION ASSAY - IC50) turned out to be 4.08 µM.

For the compound `FC(F)(F)c1cc(N/N=C2/CCSc3sccc32)cc(C(F)(F)F)c1`, the IC90 was more than 8.33 µM. Further, where the note is “PBLUC_HILL_SLOPE 3.14, PBLUC_R_SQUARED 0.463, read-out: LUCIFERASE INFECTION ASSAY - IC50”, the IC50 came to 4.15 µM.

`Cc1ccc(S(=O)(=O)c2ccc(C(F)(F)F)cc2[N+](=O)[O-])cc1`: the 90% effect concentration (IC90) is more than 9.56 µM. In addition, the IC50 (FFLUC_HILL_SLOPE 11, FFLUC_R_SQUARED 0.463, read-out: LUCIFERASE INFECTION ASSAY - IC50) is more than 9.56 µM.

As to `S=C1CCc2ccccc2N1Cc1ccccc1`, the IC90 is more than 13 µM. Further, the IC50 (PBLUC_HILL_SLOPE 2.45, PBLUC_R_SQUARED 0.245, read-out: LUCIFERASE INFECTION ASSAY - IC50) was more than 13 µM.

For the compound `O=c1c(Cl)c(Cl)cnn1-c1cnc2ccccc2n1`, the IC90 is more than 11.3 µM. Also, the IC50 (FFLUC_HILL_SLOPE 1.37, FFLUC_R_SQUARED 0.431, HEPG2TOX_HILL_SLOPE 2.28, HEPG2TOX_R_SQUARED 0.959, PBLUC_HILL_SLOPE 0.482, PBLUC_R_SQUARED 0.686, read-out: LUCIFERASE INFECTION ASSAY - IC50) came to 0.149 µM.

Regarding `OCCNc1ncnc2c1c(-c1ccccc1)cn2-c1ccc(Cl)cc1`, the 90% effect concentration (IC90) was more than 10 µM. Besides, the IC50 (FFLUC_HILL_SLOPE 35.7, FFLUC_R_SQUARED 0.282, read-out: LUCIFERASE INFECTION ASSAY - IC50) was more than 10 µM.

As for `C/C(=N\O)c1cnc(-c2ccccc2)s1`, the IC90 worked out at 14.8 µM. For the same compound, the IC50 (HEPG2TOX_HILL_SLOPE 1.93, HEPG2TOX_R_SQUARED 0.937, PBLUC_HILL_SLOPE 2.91, PBLUC_R_SQUARED 0.0759, read-out: LUCIFERASE INFECTION ASSAY - IC50) was found to be 6.95 µM.

For the compound `CCOc1ccccc1C(=O)NCCc1cccc(Cl)c1`, the IC90 is more than 10.9 µM. Besides, under setting [1], the IC50 was more than 10.9 µM.

On to `Cc1cccc(N(C)c2ccnc3c(-c4ccc(C(=O)NC5CC5)cc4)cnn23)c1`, for which the IC90 is 6.33 µM. The IC50 (PBLUC_HILL_SLOPE 3.89, PBLUC_R_SQUARED 0.384, read-out: LUCIFERASE INFECTION ASSAY - IC50) worked out at 3.6 µM.

On to `O=[N+]([O-])c1cc(C(F)(F)F)ccc1N1CCCN(C(=S)Nc2cccc(C(F)(F)F)c2)CC1`, for which the IC90 is more than 6.7 µM. Further, the IC50 (FFLUC_HILL_SLOPE 18.8, FFLUC_R_SQUARED 0.397, HEPG2TOX_HILL_SLOPE 0.504, HEPG2TOX_R_SQUARED 0.366, read-out: LUCIFERASE INFECTION ASSAY - IC50) was more than 6.7 µM.

`CCN1C(=O)N(CCC(C)C)C2(CCN(Cc3ccc4c(c3)Cc3ccccc3-4)CC2)C1=O`: the IC90 is more than 7.41 µM. Also, the IC50 (HEPG2TOX_HILL_SLOPE 8.09, HEPG2TOX_R_SQUARED 0.945, PBLUC_HILL_SLOPE 9.13, PBLUC_R_SQUARED 0.509, read-out: LUCIFERASE INFECTION ASSAY - IC50) was 5.93 µM.

Turning to `Cc1[nH]c2ccccc2c1/C=N/n1c(-c2ccc(Cl)cc2Cl)cs/c1=N\CC1CCCO1` (stereo not given), the IC90 turned out to be 6.77 µM. In addition, where the note is “FFLUC_HILL_SLOPE 15.4, FFLUC_R_SQUARED 0.637, HEPG2TOX_HILL_SLOPE 0.309, HEPG2TOX_R_SQUARED 0.658, PBLUC_HILL_SLOPE 1.1, PBLUC_R_SQUARED 0.559, read-out: LUCIFERASE INFECTION ASSAY - IC50”, the half-maximal inhibitory concentration (IC50) is 0.923 µM.

As to `CC(C)(C)c1ccccc1NC(=O)c1csc(N2CCN(CCc3ccccc3)C2=O)n1`, the IC90 is more than 10 µM. Moreover, the IC50 (PBLUC_HILL_SLOPE 20.4, PBLUC_R_SQUARED 0.59, read-out: LUCIFERASE INFECTION ASSAY - IC50) stood at 9.01 µM.

Regarding `Cc1nc2c3c(C)c(C)n(C4CCCCCC4)c3ncn2n1`, the IC90 is more than 11.1 µM. The IC50 under setting [1] was more than 11.1 µM.

On to `Brc1cc2c(cc1CSc1ncnc3ccccc13)OCO2`, for which the IC90 came to 1.53 µM. Besides, the IC50 (HEPG2TOX_HILL_SLOPE 1.93, HEPG2TOX_R_SQUARED 0.941, PBLUC_HILL_SLOPE 155, PBLUC_R_SQUARED 0.104, read-out: LUCIFERASE INFECTION ASSAY - IC50) is 1.51 µM.

In the case of `O=S(=O)(c1ccc(Cl)c(N=C2NN=C(c3c[nH]c4ccccc34)CS2)c1)N1CCOCC1`, the IC90 is more than 10 µM. For the setting “FFLUC_HILL_SLOPE 3.06, FFLUC_R_SQUARED 0.687, HEPG2TOX_HILL_SLOPE 3.66, HEPG2TOX_R_SQUARED 0.952, PBLUC_HILL_SLOPE 1.64, PBLUC_R_SQUARED 0.734, read-out: LUCIFERASE INFECTION ASSAY - IC50”, the IC50 was found to be 3.83 µM.

As to `Cc1cc(NC(=O)c2cccc(S(=O)(=O)N3c4ccccc4CC3C)c2)no1` (stereo not given), the IC90 amounted to 1.24 µM. The IC50 (PBLUC_HILL_SLOPE 18.4, PBLUC_R_SQUARED 0.605, read-out: LUCIFERASE INFECTION ASSAY - IC50) came out at 1.1 µM.

As to `Fc1ccc(CSc2nc(CSc3ccc(Cl)cc3)cc(Sc3ccc(Cl)cc3)n2)cc1`, the IC90 was more than 6.35 µM. The IC50 (FFLUC_HILL_SLOPE 2.29, FFLUC_R_SQUARED 0.432, read-out: LUCIFERASE INFECTION ASSAY - IC50) is more than 6.35 µM.

As to `OC(Cc1ccccc1)(c1ccccc1)c1ccccc1/N=C/c1ccc(Cl)c(Cl)c1` (stereo not given), the IC90 was more than 7.39 µM. For the same compound, the IC50 under setting [1] was more than 7.39 µM.

As to `CC(N=C(S)Nc1ccc(OC(F)F)c(Cl)c1)C(C)(C)C` (stereo not given), the IC90 was more than 10 µM. Besides, the IC50 (HEPG2TOX_HILL_SLOPE 8.22, HEPG2TOX_R_SQUARED 0.242, PBLUC_HILL_SLOPE 12.6, PBLUC_R_SQUARED 0.772, read-out: LUCIFERASE INFECTION ASSAY - IC50) stood at 8.6 µM.

Values taken from ChEMBL document CHEMBL4483862, “Open-source discovery of chemical leads for next-generation chemoprotective antimalarials” (2018).
